Reference: ChEMBL document CHEMBL1201862, “PubChem BioAssay data set” (2004)
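1) Cells in 96-well plates. 2) Compound, 48 h, 5 concentrations. 3) Linear interpolation between surrounding doses. 4) Unreached endpoint = highest concentration. Abbreviation: GI50, concentration required for 50% inhibition of growth.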 Calls of active or inactive are those of the source. No stated cut-off is given here; in the data, active = GI50 up to about 1.1 µM and inactive = higher.

What was measured:
Test in all cases: NCI tumour cell line growth inhibition, 48 h
[1] = tested on: OVCAR-8
[2] = tested on: SK-MEL-2
[3] = tested on: IGROV-1
[4] = tested on: U-251
[5] = tested on: SNB-78
[6] = tested on: A549
[7] = tested on: UACC-62
[8] = tested on: SNB-19
[9] = tested on: OVCAR-5
[10] = tested on: SK-MEL-28
[11] = tested on: LOX IMVI
[12] = tested on: COLO 205
[13] = tested on: NCI-H226
[14] = tested on: OVCAR-3
[15] = tested on: SF-268
[16] = tested on: SN12C
[17] = tested on: CCRF-CEM
[18] = tested on: ACHN
[19] = tested on: HCT-116
[20] = tested on: KM12
[21] = tested on: MOLT-4
[22] = tested on: LXFL 529
[23] = tested on: SF-295
[24] = tested on: Malme-3M
[25] = tested on: CAKI-1
[26] = tested on: HCC 2998
[27] = tested on: NCI-H23
[28] = tested on: DLD-1
[29] = tested on: SF-539
[30] = tested on: SW-620
[31] = tested on: SK-OV-3
[32] = tested on: KM-20L2
[33] = tested on: HOP-92
[34] = tested on: EKVX
[35] = tested on: TK-10
[36] = tested on: SNB-75
[37] = tested on: 786-0
[38] = tested on: M19-MEL
[39] = tested on: SR
[40] = tested on: HT-29
[41] = tested on: A498
[42] = tested on: NCI-H460
[43] = tested on: XF498
[44] = tested on: SK-MEL-5
[45] = tested on: HCT-15
[46] = tested on: DMS-273
[47] = tested on: DMS-114
[48] = tested on: UO-31
[49] = tested on: HL-60
[50] = tested on: NCI-H522
[51] = tested on: RXF 393
[52] = tested on: UACC-257
[53] = tested on: HOP-62
[54] = tested on: OVCAR-4
[55] = tested on: K562
[56] = tested on: M14
[57] = tested on: RPMI-8226

O=C1NCC2=C1CCC1c3ccccc3CCN21 (stereo unspecified)
GI50 [1]: > 100 µM (inactive) | GI50 [2]: > 100 µM (inactive) | GI50 [3]: > 100 µM (inactive) | GI50 [4]: > 100 µM (inactive) | GI50 [5]: > 100 µM (inactive) | GI50 [6]: > 100 µM (inactive) | GI50 [7]: > 100 µM (inactive) | GI50 [8]: > 100 µM (inactive) | GI50 [9]: > 100 µM (inactive) | GI50 [10]: > 100 µM (inactive) | GI50 [11]: > 100 µM (inactive) | GI50 [12]: > 100 µM (inactive) | GI50 [13]: > 100 µM (inactive) | GI50 [14]: > 100 µM (inactive) | GI50 [15]: > 100 µM (inactive) | GI50 [16]: > 100 µM (inactive) | GI50 [17]: > 100 µM (inactive) | GI50 [18]: > 100 µM (inactive) | GI50 [19]: > 100 µM (inactive) | GI50 [20]: > 100 µM (inactive) | GI50 [21]: > 100 µM (inactive) | GI50 [22]: > 100 µM (inactive) | GI50 [23]: > 100 µM (inactive) | GI50 [24]: > 100 µM (inactive) | GI50 [25]: > 100 µM (inactive) | GI50 [26]: > 100 µM (inactive) | GI50 [27]: > 100 µM (inactive) | GI50 [28]: > 100 µM (inactive) | GI50 [29]: > 100 µM (inactive) | GI50 [30]: > 100 µM (inactive) | GI50 [31]: > 100 µM (inactive) | GI50 [32]: > 100 µM (inactive) | GI50 [33]: > 100 µM (inactive) | GI50 [34]: > 100 µM (inactive) | GI50 [35]: > 100 µM (inactive) | GI50 [36]: > 100 µM (inactive) | GI50 [37]: > 100 µM (inactive) | GI50 [38]: > 100 µM (inactive) | GI50 [39]: > 100 µM (inactive) | GI50 [40]: > 100 µM (inactive) | GI50 [41]: > 100 µM (inactive) | GI50 [42]: > 100 µM (inactive) | GI50 [43]: > 100 µM (inactive) | GI50 [44]: > 100 µM (inactive) | GI50 [45]: > 100 µM | GI50 [46]: > 100 µM (inactive) | GI50 [47]: > 100 µM (inactive) | GI50 [48]: > 100 µM (inactive) | GI50 [49]: > 100 µM (inactive) | GI50 [50]: > 100 µM (inactive) | GI50 [51]: > 100 µM (inactive) | GI50 [52]: > 100 µM (inactive)

COC(=O)C1C(=O)NC2(C)CC1c1ccccc1O2 (stereo unspecified)
GI50 [1]: > 100 µM (inactive) | GI50 [2]: > 100 µM (inactive) | GI50 [3]: > 100 µM (inactive) | GI50 [4]: > 100 µM (inactive) | GI50 [5]: > 100 µM (inactive) | GI50 [6]: > 100 µM (inactive) | GI50 [7]: > 100 µM (inactive) | GI50 [8]: > 100 µM (inactive) | GI50 [53]: > 10 µM (inactive) | GI50 [9]: > 100 µM (inactive) | GI50 [10]: > 100 µM (inactive) | GI50 [11]: > 100 µM (inactive) | GI50 [54]: > 100 µM (inactive) | GI50 [13]: > 100 µM (inactive) | GI50 [14]: > 10 µM (inactive) | GI50 [15]: > 100 µM (inactive) | GI50 [16]: > 100 µM (inactive) | GI50 [17]: > 100 µM (inactive) | GI50 [18]: > 100 µM (inactive) | GI50 [19]: > 100 µM (inactive) | GI50 [55]: > 100 µM (inactive) | GI50 [20]: > 100 µM (inactive) | GI50 [21]: > 100 µM (inactive) | GI50 [22]: > 100 µM (inactive) | GI50 [23]: > 100 µM (inactive) | GI50 [24]: > 100 µM (inactive) | GI50 [25]: > 100 µM (inactive) | GI50 [26]: > 100 µM (inactive) | GI50 [27]: > 100 µM (inactive) | GI50 [28]: > 100 µM (inactive) | GI50 [29]: > 100 µM (inactive) | GI50 [30]: > 100 µM (inactive) | GI50 [31]: > 100 µM (inactive) | GI50 [33]: > 100 µM (inactive) | GI50 [35]: > 100 µM (inactive) | GI50 [36]: 62.7 µM (inactive) | GI50 [56]: > 10 µM (inactive) | GI50 [57]: > 100 µM (inactive) | GI50 [37]: > 100 µM (inactive) | GI50 [38]: > 100 µM (inactive) | GI50 [39]: > 100 µM (inactive) | GI50 [40]: > 100 µM (inactive) | GI50 [41]: > 100 µM (inactive) | GI50 [42]: > 100 µM (inactive) | GI50 [43]: > 100 µM (inactive) | GI50 [44]: > 100 µM (inactive) | GI50 [45]: > 100 µM | GI50 [46]: > 100 µM (inactive) | GI50 [47]: > 100 µM (inactive) | GI50 [48]: > 100 µM (inactive) | GI50 [49]: > 100 µM (inactive) | GI50 [50]: > 100 µM (inactive) | GI50 [51]: > 100 µM (inactive) | GI50 [52]: > 100 µM (inactive)
